Laboratory results reported in ChEMBL document CHEMBL4616662, “Cyperane-Type and Related (Nor)Sesquiterpenoids from the Root Bark of Acanthopanax gracilistylus and Their Inhibitory Effects on Nitric Oxide Production” (J Nat Prod, 2020).

What was measured:
RAW264.7 [1] = experiment: Cytotoxicity against LPS-stimulated mouse RAW264.7 cells at 6.25 to 100 uM by MTT assay; format: cell-based; conditions: raw264.7, 100 µM
RAW264.7 [2] = experiment: Antiinflammatory activity in mouse RAW264.7 cells assessed as inhibition of LPS-induced nitirc oxide production pretreated followed by LPS challenge and measured after 24 hrs by Griess assay; format: functional, cell-based

Row | IC50 (RAW264.7 [2]) [µM] | SMILES | Activity (RAW264.7 [1])
1 | 2.6 | CC(=O)[C@@H]1CC[C@@]2(C)CCC(=O)O[C@@]2(C(C)=O)C1 | Non-Toxic
2 | 6.8 | CC(=O)[C@]12C=C([C@@](C)(O)CO)CC[C@@]1(C)CC[C@H]2O | Non-Toxic
3 | 7.7 | CC(=O)[C@@]12C=C([C@](C)(O)CO)CC[C@]1(C)CC[C@@H]2O | Non-Toxic

Row | SMILES | IC50 (RAW264.7 [2]) [µM] | Activity (RAW264.7 [1])
4 | COC(=O)[C@@H](N)CCCNC(=N)N[N+](=O)[O-] [L-NAME] | 58.4 | –
